Measured values published in PubChem BioAssay (NCI).
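Cells were grown in 96-well plates and exposed to each compound for 48 hours at five concentrations; endpoints were interpolated linearly between bracketing concentrations, or set to the highest concentration if not reached. Definition used: TGI = concentration required for complete inhibition of growth.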

Key:
Test in all cases: NCI anticancer screen, dose series, 48 h
786-0 renal = system: 786-0 renal
A498 renal = system: A498 renal
A549 NSCLC = system: A549 NSCLC
ACHN renal = system: ACHN renal
BT-549 breast = system: BT-549 breast
CAKI-1 renal = system: CAKI-1 renal
CCRF-CEM leukemia = system: CCRF-CEM leukemia
COLO 205 colon = system: COLO 205 colon
DU-145 prostate = system: DU-145 prostate
EKVX NSCLC = system: EKVX NSCLC
HCC-2998 colon = system: HCC-2998 colon
HCT-116 colon = system: HCT-116 colon
HCT-15 colon = system: HCT-15 colon
HL-60(TB) leukemia = system: HL-60(TB) leukemia
HOP-62 NSCLC = system: HOP-62 NSCLC
HOP-92 NSCLC = system: HOP-92 NSCLC
HS 578T breast = system: HS 578T breast
HT29 colon = system: HT29 colon
IGROV1 ovarian = system: IGROV1 ovarian
K-562 leukemia = system: K-562 leukemia
KM12 colon = system: KM12 colon
M14 melanoma = system: M14 melanoma
MALME-3M melanoma = system: MALME-3M melanoma
MCF7 breast = system: MCF7 breast
MDA-MB-231 breast = system: MDA-MB-231 breast
MDA-MB-435 = system: MDA-MB-435
MDA-N = system: MDA-N
MOLT-4 leukemia = system: MOLT-4 leukemia
NCI-H226 lung = system: NCI-H226 lung
NCI-H23 lung = system: NCI-H23 lung
NCI-H460 lung = system: NCI-H460 lung
NCI-H522 lung = system: NCI-H522 lung
NCI/ADR-RES ovarian = system: NCI/ADR-RES ovarian
OVCAR-3 ovarian = system: OVCAR-3 ovarian
OVCAR-4 ovarian = system: OVCAR-4 ovarian
OVCAR-5 ovarian = system: OVCAR-5 ovarian
OVCAR-8 ovarian = system: OVCAR-8 ovarian
PC-3 prostate = system: PC-3 prostate
RPMI-8226 leukemia = system: RPMI-8226 leukemia
RXF 393 renal = system: RXF 393 renal
SF-268 CNS = system: SF-268 CNS
SF-295 CNS = system: SF-295 CNS
SF-539 CNS = system: SF-539 CNS
SK-MEL-2 melanoma = system: SK-MEL-2 melanoma
SK-MEL-28 melanoma = system: SK-MEL-28 melanoma
SK-MEL-5 melanoma = system: SK-MEL-5 melanoma
SK-OV-3 ovarian = system: SK-OV-3 ovarian
SN12C renal = system: SN12C renal
SNB-19 CNS = system: SNB-19 CNS
SR leukemia = system: SR leukemia
T-47D breast = system: T-47D breast
TK-10 renal = system: TK-10 renal
U251 CNS = system: U251 CNS
UACC-257 melanoma = system: UACC-257 melanoma
UACC-62 melanoma = system: UACC-62 melanoma
UO-31 renal = system: UO-31 renal
LOX IMVI melanoma = system: LOX IMVI melanoma
SNB-75 CNS = system: SNB-75 CNS
SW-620 colon = system: SW-620 colon

Compound: CCCCn1c(N)c(-c2nc3ccccc3o2)sc1=S
- TGI (786-0 renal): 33 µM
- TGI (A498 renal): 98.8 µM
- TGI (A549 NSCLC): 29.8 µM
- TGI (ACHN renal): 23.3 µM
- TGI (BT-549 breast): 75.2 µM
- TGI (CAKI-1 renal): 41 µM
- TGI (CCRF-CEM leukemia): > 100 µM
- TGI (COLO 205 colon): > 100 µM
- TGI (DU-145 prostate): 35.9 µM
- TGI (EKVX NSCLC): 81.8 µM
- TGI (HCC-2998 colon): > 100 µM
- TGI (HCT-116 colon): 24.6 µM
- TGI (HCT-15 colon): 47.5 µM
- TGI (HL-60(TB) leukemia): > 100 µM
- TGI (HOP-62 NSCLC): 39.9 µM
- TGI (HOP-92 NSCLC): > 100 µM
- TGI (HS 578T breast): 77.6 µM
- TGI (HT29 colon): 78 µM
- TGI (IGROV1 ovarian): 44.1 µM
- TGI (K-562 leukemia): > 100 µM
- TGI (KM12 colon): > 100 µM
- TGI (M14 melanoma): > 100 µM
- TGI (MALME-3M melanoma): 40.2 µM
- TGI (MCF7 breast): > 100 µM
- TGI (MDA-MB-231 breast): 34.3 µM
- TGI (MDA-MB-435): 38.5 µM
- TGI (MDA-N): 69.1 µM
- TGI (MOLT-4 leukemia): > 100 µM
- TGI (NCI-H226 lung): 43.1 µM
- TGI (NCI-H23 lung): 37.6 µM
- TGI (NCI-H460 lung): 42.6 µM
- TGI (NCI-H522 lung): 31.5 µM
- TGI (NCI/ADR-RES ovarian): 46.8 µM
- TGI (OVCAR-3 ovarian): 33.9 µM
- TGI (OVCAR-4 ovarian): 19.9 µM
- TGI (OVCAR-5 ovarian): 53.6 µM
- TGI (OVCAR-8 ovarian): 37.7 µM
- TGI (PC-3 prostate): > 100 µM
- TGI (RPMI-8226 leukemia): 67.4 µM
- TGI (RXF 393 renal): > 100 µM
- TGI (SF-268 CNS): 74.4 µM
- TGI (SF-295 CNS): 28.9 µM
- TGI (SF-539 CNS): 23.2 µM
- TGI (SK-MEL-2 melanoma): 37.7 µM
- TGI (SK-MEL-28 melanoma): 52.7 µM
- TGI (SK-MEL-5 melanoma): 34.9 µM
- TGI (SK-OV-3 ovarian): 40.8 µM
- TGI (SN12C renal): 54.3 µM
- TGI (SNB-19 CNS): > 100 µM
- TGI (SR leukemia): > 100 µM
- TGI (T-47D breast): 47.9 µM
- TGI (TK-10 renal): 39.3 µM
- TGI (U251 CNS): 33 µM
- TGI (UACC-257 melanoma): > 100 µM
- TGI (UACC-62 melanoma): 31.9 µM
- TGI (UO-31 renal): 39 µM

Compound: O=C(c1ccccc1)c1ccc2nc(-c3c(Cl)c(Cl)c(Cl)c(Cl)c3C(=O)N/N=C/c3ccc(Cl)cc3)[nH]c2c1
- TGI (786-0 renal): 99.6 µM
- TGI (A549 NSCLC): > 100 µM
- TGI (ACHN renal): 65.7 µM
- TGI (BT-549 breast): > 100 µM
- TGI (CAKI-1 renal): > 100 µM
- TGI (CCRF-CEM leukemia): 71.3 µM
- TGI (COLO 205 colon): > 100 µM
- TGI (DU-145 prostate): > 100 µM
- TGI (EKVX NSCLC): > 100 µM
- TGI (HCT-116 colon): > 100 µM
- TGI (HCT-15 colon): > 100 µM
- TGI (HL-60(TB) leukemia): 21.1 µM
- TGI (HOP-62 NSCLC): > 100 µM
- TGI (HOP-92 NSCLC): > 100 µM
- TGI (HS 578T breast): > 100 µM
- TGI (HT29 colon): > 100 µM
- TGI (IGROV1 ovarian): > 100 µM
- TGI (K-562 leukemia): > 100 µM
- TGI (KM12 colon): > 100 µM
- TGI (LOX IMVI melanoma): > 100 µM
- TGI (M14 melanoma): > 100 µM
- TGI (MALME-3M melanoma): > 100 µM
- TGI (MCF7 breast): 71.8 µM
- TGI (MDA-MB-231 breast): 61.4 µM
- TGI (MDA-MB-435): > 100 µM
- TGI (MDA-N): > 100 µM
- TGI (MOLT-4 leukemia): > 100 µM
- TGI (NCI-H226 lung): > 100 µM
- TGI (NCI-H23 lung): > 100 µM
- TGI (NCI-H522 lung): > 100 µM
- TGI (NCI/ADR-RES ovarian): > 100 µM
- TGI (OVCAR-3 ovarian): 51.5 µM
- TGI (OVCAR-4 ovarian): > 100 µM
- TGI (OVCAR-5 ovarian): > 100 µM
- TGI (OVCAR-8 ovarian): > 100 µM
- TGI (PC-3 prostate): > 100 µM
- TGI (RPMI-8226 leukemia): 51.3 µM
- TGI (RXF 393 renal): 85.9 µM
- TGI (SF-268 CNS): > 100 µM
- TGI (SF-295 CNS): > 100 µM
- TGI (SF-539 CNS): > 100 µM
- TGI (SK-MEL-2 melanoma): 72.4 µM
- TGI (SK-MEL-28 melanoma): > 100 µM
- TGI (SK-MEL-5 melanoma): 45.7 µM
- TGI (SK-OV-3 ovarian): > 100 µM
- TGI (SN12C renal): > 100 µM
- TGI (SNB-19 CNS): > 100 µM
- TGI (SNB-75 CNS): > 100 µM
- TGI (SR leukemia): > 100 µM
- TGI (SW-620 colon): > 100 µM
- TGI (T-47D breast): 88 µM
- TGI (TK-10 renal): > 100 µM
- TGI (U251 CNS): > 100 µM
- TGI (UACC-257 melanoma): > 100 µM
- TGI (UO-31 renal): > 100 µM
